Calls of active or inactive are those of the source. The calls are words filed in the database; no cut-off is given here.
What was measured:
[1] = Half life in CD-1 mouse at 1 mg/kg, po and 0.5 mg/kg, iv; assay type: ADME, organism-based; details: in vivo
[2] = Oral bioavailability in CD-1 mouse at 1 mg/kg; assay type: ADME, organism-based; details: in vivo
[3] = biological target: Protein cereblon/Androgen receptor (Homo sapiens, UniProt P10275+Q96SW2, L702H); experiment: PROTAC activity at CRBN/AR L702H mutant (unknown origin) expressed in human LNCaP cells assessed as protein degradation measured after 24 hrs incubation by imaging IF assay; assay type: cell-based
[4] = Volume of distribution at steady state in CD-1 mouse at 1 mg/kg, po and 0.5 mg/kg, iv; assay type: ADME, organism-based; details: in vivo
[5] = biological target: T1, Protein cereblon/Androgen receptor (Homo sapiens, UniProt P10275+Q96SW2); experiment: PROTAC activity at AR/CRBN in human LNCaP cells assessed as protein degradation measured after 24 hrs incubation by imaging IF assay; assay type: cell-based
Target sequence in this assay (P10275 whole entry): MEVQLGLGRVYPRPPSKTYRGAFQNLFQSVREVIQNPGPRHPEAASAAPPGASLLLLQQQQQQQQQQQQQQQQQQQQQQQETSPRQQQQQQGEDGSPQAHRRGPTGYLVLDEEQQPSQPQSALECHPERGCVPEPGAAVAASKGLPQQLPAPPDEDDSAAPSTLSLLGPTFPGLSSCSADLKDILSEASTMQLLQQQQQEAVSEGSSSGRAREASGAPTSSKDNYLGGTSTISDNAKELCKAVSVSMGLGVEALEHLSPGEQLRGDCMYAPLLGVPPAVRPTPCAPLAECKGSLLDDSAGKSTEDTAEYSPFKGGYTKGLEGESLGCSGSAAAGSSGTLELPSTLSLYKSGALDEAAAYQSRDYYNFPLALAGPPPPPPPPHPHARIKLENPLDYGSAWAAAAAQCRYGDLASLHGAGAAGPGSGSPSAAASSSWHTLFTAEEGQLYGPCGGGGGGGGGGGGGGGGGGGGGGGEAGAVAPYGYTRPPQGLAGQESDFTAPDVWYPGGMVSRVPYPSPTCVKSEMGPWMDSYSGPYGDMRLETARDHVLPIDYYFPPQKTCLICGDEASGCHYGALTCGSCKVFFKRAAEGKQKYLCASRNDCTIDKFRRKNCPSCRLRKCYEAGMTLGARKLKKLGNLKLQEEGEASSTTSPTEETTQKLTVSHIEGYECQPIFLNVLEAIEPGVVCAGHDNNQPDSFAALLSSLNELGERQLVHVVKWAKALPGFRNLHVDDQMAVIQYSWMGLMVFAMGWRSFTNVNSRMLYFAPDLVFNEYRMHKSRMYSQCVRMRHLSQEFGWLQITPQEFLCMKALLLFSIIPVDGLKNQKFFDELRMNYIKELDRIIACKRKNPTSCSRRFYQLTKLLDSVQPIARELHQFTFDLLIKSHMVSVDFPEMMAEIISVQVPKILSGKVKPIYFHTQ
Target sequence in this assay (Q96SW2 whole entry): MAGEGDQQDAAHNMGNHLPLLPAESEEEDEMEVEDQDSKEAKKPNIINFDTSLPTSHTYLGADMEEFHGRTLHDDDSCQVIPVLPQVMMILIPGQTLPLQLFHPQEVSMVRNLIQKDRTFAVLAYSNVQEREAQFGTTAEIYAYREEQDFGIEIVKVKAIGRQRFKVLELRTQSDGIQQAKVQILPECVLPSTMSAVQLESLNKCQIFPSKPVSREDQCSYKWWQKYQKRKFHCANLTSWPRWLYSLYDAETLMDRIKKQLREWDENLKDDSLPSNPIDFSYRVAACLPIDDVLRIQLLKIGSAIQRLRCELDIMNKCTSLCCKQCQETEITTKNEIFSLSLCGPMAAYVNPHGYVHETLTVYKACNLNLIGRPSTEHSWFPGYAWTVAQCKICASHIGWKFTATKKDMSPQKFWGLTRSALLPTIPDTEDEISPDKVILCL

[6] = biological target: T1, Protein cereblon/Androgen receptor; experiment: PROTAC activity at AR/CRBN in human LNCaP cells assessed as maximal protein degradation measured after 24 hrs incubation by imaging IF assay relative to control; assay type: cell-based
Target sequence in this assay (P10275 whole entry, looked up): as the sequence (P10275 whole entry) above
Target sequence in this assay (Q96SW2 whole entry, looked up): as the sequence (Q96SW2 whole entry) above

[7] = Metabolic stability in human liver microsomes assessed as intrinsic clearance; assay type: ADME, Microsome; details: read-out: CLH
[8] = Half life in CD-1 mouse at 1 mg/kg, po and 0.5 mg/kg, iv bolus; assay type: ADME, organism-based; details: in vivo
[9] = Permeability of compound in human Caco-2 cells; assay type: ADME, cell-based
[10] = Half life in Beagle dog at 1 mg/kg, po and 0.5 mg/kg, iv infusion over 0.25 hrs; assay type: ADME, organism-based, Canis lupus familiaris; details: in vivo
[11] = Oral bioavailability in Beagle dog at 1 mg/kg; assay type: ADME, organism-based, Canis lupus familiaris; details: in vivo
[12] = Aqueous solubility of compound at pH 7.4 buffer; assay type: physicochemical
[13] = Volume of distribution at steady state in Beagle dog at 1 mg/kg, po and 0.5 mg/kg, iv infusion over 0.25 hrs; assay type: ADME, organism-based, Canis lupus familiaris; details: in vivo
[14] = Volume of distribution at steady state in CD-1 mouse at 1 mg/kg, po and 0.5 mg/kg, iv bolus; assay type: ADME, organism-based; details: in vivo
[15] = Half life in Han Wistar rat at 1 mg/kg, po and 0.5 mg/kg, iv bolus; assay type: ADME, organism-based; details: in vivo
[16] = Volume of distribution at steady state in Han Wistar rat at 1 mg/kg, po and 0.5 mg/kg, iv bolus; assay type: ADME, organism-based; details: in vivo
[17] = Oral bioavailability in Han Wistar rat at 1 mg/kg; assay type: ADME, organism-based; details: in vivo
[18] = tested on: Protein cereblon/Androgen receptor (Homo sapiens), P10275+Q96SW2 [L702H]; experiment: PROTAC activity at CRBN/AR L702H mutant (unknown origin) expressed in human LNCaP cells assessed as maximal protein degradation measured after 24 hrs incubation by imaging IF assay relative to control; assay type: cell-based
LNCaP C4-2 [19] = experiment: In vivo degradation of AR in human LNCaP C4-2 cells xenografted in mouse model assessed as tumor growth inhibition at 50 mg/kg, po once daily measured after 28 days relative to control; assay type: functional, organism-based; details: time 28.0 day
LNCaP C4-2 [20] = experiment: In vivo degradation of AR in human LNCaP C4-2 cells xenografted in mouse model assessed as tumor growth inhibition at 10 mg/kg, po once daily measured after 28 days relative to control; assay type: functional, organism-based; details: time 28.0 day
[21] = biological target: von Hippel-Lindau disease tumor suppressor/Androgen receptor (Homo sapiens) (UniProt P10275+P40337); experiment: PROTAC activity at AR/VHL in human LNCaP cells assessed as maximal protein degradation measured after 24 hrs incubation by imaging IF assay relative to control; assay type: cell-based
von Hippel-Lindau disease tumor suppressor/Androgen receptor (Homo sapiens), sequence (P10275 whole entry, looked up): as the sequence (P10275 whole entry) above
von Hippel-Lindau disease tumor suppressor/Androgen receptor (Homo sapiens), sequence (P40337 whole entry, looked up): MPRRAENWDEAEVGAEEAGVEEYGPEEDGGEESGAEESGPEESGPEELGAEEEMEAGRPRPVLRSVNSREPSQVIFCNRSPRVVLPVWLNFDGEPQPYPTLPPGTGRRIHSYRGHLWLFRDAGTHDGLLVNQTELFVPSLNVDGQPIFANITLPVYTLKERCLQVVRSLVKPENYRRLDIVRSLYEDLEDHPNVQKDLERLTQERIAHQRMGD

Protein cereblon/Androgen receptor (Homo sapiens, UniProt P10275+Q96SW2, L702H), sequence (P10275 whole entry L702H, stated change not applied): as the sequence (P10275 whole entry) above, with L702H counted along it
Protein cereblon/Androgen receptor (Homo sapiens, UniProt P10275+Q96SW2, L702H), sequence (Q96SW2 whole entry, stated change not applied): as the sequence (Q96SW2 whole entry) above

Compound	half-life [1]	bioavailability [2]	DC50 [3]	Vdss [4]	DC50 [5]	Emax [6]	microsomal CLint [7]	other results
N#Cc1ccc(N2CCC(c3ccc(N4CCC(CN5CCN(c6ccc7c(c6)CN(C6CCC(=O)NC6=O)C7=O)CC5)CC4)cc3)CC2)cc1C(F)(F)F (stereo not given)	19 h	46%	> 3000 nM	4.5 L/kg	18 nM	85%	3 µL/min/mg	–
N#Cc1ccc(N2CCC(c3ccc(N4CCC(CN5CCN(c6ccc7c(c6)CN(C6CCC(=O)NC6=O)C7=O)CC5)CC4)cc3)CC2)c(F)c1C(F)(F)F (stereo not given)	19.5 h	48%	77 nM	2 L/kg	23 nM	95%	–	–
N#Cc1ccc(N2CCC(c3ccc(OCCCCCN4CCN(c5ccc6c(c5)CN(C5CCC(=O)NC5=O)C6=O)CC4)cc3)CC2)cc1C(F)(F)F (stereo not given)	–	–	–	–	15 nM	94%	12 µL/min/mg	–
COc1cc(N2CCN(CC3CCN(c4ccc(C5CCN(c6ccc(C#N)c(C(F)(F)F)c6)CC5)cc4)CC3)CC2)cc2c1C(=O)N(C1CCC(=O)NC1=O)C2 (stereo not given)	6.8 h	50%	> 3000 nM	2.4 L/kg	26 nM	92%	< 3 µL/min/mg	half-life [8]: 6.8 h; Papp [9]: < 0.05 ×10⁻⁶ cm/s; half-life [10]: 21 h; bioavailability [11]: 19%; solubility [12]: < 2 µM; Vdss [13]: 13 L/kg; Vdss [14]: 2.4 L/kg; half-life [15]: 9.1 h; Vdss [16]: 7.8 L/kg; bioavailability [17]: 27%
COc1cc(N2CCN(CC3CCN(c4ccc(C5CCN(c6ccc(C#N)c(C(F)(F)F)c6F)CC5)c(F)c4)CC3)CC2)cc2c1C(=O)N(C1CCC(=O)NC1=O)C2 (stereo not given)	17 h	50%	469 nM	2.2 L/kg	12 nM	100%	–	Emax [18]: 100%
N#Cc1ccc(N2CCC(c3ccc(OCCCCN4CCN(c5ccc6c(c5)C(=O)N(C5CCC(=O)NC5=O)C6=O)CC4)cc3)CC2)cc1C(F)(F)F (stereo not given)	–	–	–	–	22 nM	100%	21 µL/min/mg	–
N#Cc1ccc(N2CCC(c3ccc(OCCCN4CCN(c5ccc6c(c5)CN(C5CCC(=O)NC5=O)C6=O)CC4)cc3)CC2)cc1C(F)(F)F (stereo not given)	–	–	–	–	16 nM	79%	5 µL/min/mg	–
N#Cc1ccc(N2CCC(c3ccc(OCCCCN4CCN(c5ccc6c(c5)CN(C5CCC(=O)NC5=O)C6=O)CC4)cc3)CC2)c(F)c1C(F)(F)F (stereo not given)	7 h	30%	107 nM	3.4 L/kg	9 nM	100%	–	Emax [18]: 78%
CNC(=O)c1ccc(N2C(=S)N(c3ccc(C#N)c(C(F)(F)F)c3)C(=O)C2(C)C)cc1F	–	–	–	–	–	–	–	Activity (LNCaP C4-2 [19]): Active
N#Cc1ccc(N2CCC(c3ccc(N4CCC(CN5CCN(c6cc7c(cc6F)C(=O)N(C6CCC(=O)NC6=O)C7=O)CC5)CC4)cc3)CC2)c(F)c1C(F)(F)F (stereo not given)	–	–	992 nM	–	87 nM	100%	–	Emax [18]: 100%
N#Cc1ccc(N2CCC(c3ccc(OCCCCN4CCN(c5ccc6c(c5)CN(C5CCC(=O)NC5=O)C6=O)CC4)cc3)CC2)cc1C(F)(F)F (stereo not given)	5 h	47%	> 3000 nM	5.2 L/kg	7 nM	97%	10 µL/min/mg	half-life [8]: 5 h; Papp [9]: < 0.05 ×10⁻⁶ cm/s; half-life [10]: 53.5 h; bioavailability [11]: 8%; solubility [12]: < 2 µM; Vdss [13]: 7.1 L/kg; Vdss [14]: 5.2 L/kg; half-life [15]: 6.6 h; Vdss [16]: 6.2 L/kg; bioavailability [17]: 20%
N#Cc1ccc(O[C@H]2CC[C@H](NC(=O)c3ccc(N4CCC(CN5CCN(c6cc7c(cc6F)C(=O)N(C6CCC(=O)NC6=O)C7=O)CC5)CC4)nn3)CC2)cc1Cl (stereo not given in full)	–	–	–	–	–	–	–	Activity (LNCaP C4-2 [20]): Active
COc1cc(N2CCN(CC3CCN(c4cc(F)c(C5CCN(c6ccc(C#N)c(C(F)(F)F)c6F)CC5)c(F)c4)CC3)CC2)cc2c1C(=O)N(C1CCC(=O)NC1=O)C2 (stereo not given)	41 h	30%	633 nM	3.6 L/kg	18 nM	100%	–	Emax [18]: 80%
Cc1c(N2CCC(c3ccc(N4CCC(CN5CCN(c6ccc7c(c6)CN(C6CCC(=O)NC6=O)C7=O)CC5)CC4)cc3)CC2)ccc(C#N)c1C(F)(F)F (stereo not given)	–	–	> 3000 nM	–	152 nM	70%	–	–
N#Cc1ccc(N2CCC(c3ccc(N4CCC(CN5CCN(c6ccc7c(c6)CN(C6CCC(=O)NC6=O)C7=O)CC5)CC4)cc3)CC2)c(Cl)c1C(F)(F)F (stereo not given)	–	–	144 nM	–	48 nM	80%	–	–
Cc1ncsc1-c1ccc([C@H](C)NC(=O)[C@@H]2C[C@@H](O)CN2C(=O)[C@@H](NC(=O)COCCCCCNc2ccc(C(=O)N[C@H]3C(C)(C)[C@H](Oc4ccc(C#N)c(Cl)c4)C3(C)C)cc2)C(C)(C)C)cc1	–	–	–	–	–	–	–	Emax [21]: 100%
N#Cc1ccc(N2CCC(c3ccc(N4CCC(CN5CCN(c6ccc7c(c6)C(=O)N(C6CCC(=O)NC6=O)C7=O)CC5)CC4)cc3)CC2)c(F)c1C(F)(F)F (stereo not given)	32 h	77%	1330 nM	6.2 L/kg	170 nM	100%	–	Emax [18]: 100%
N#Cc1ccc(N2CCC(c3ccc(N4CCC(CN5CCN(c6cc7c(cc6F)C(=O)N(C6CCC(=O)NC6=O)C7)CC5)CC4)cc3)CC2)cc1C(F)(F)F (stereo not given)	–	–	–	–	180 nM	92%	< 3 µL/min/mg	–

Source: ChEMBL document CHEMBL5523747, “Discovery of a Series of Orally Bioavailable Androgen Receptor Degraders for the Treatment of Prostate Cancer” (J Med Chem, 2024)
